Reference: PMC10033419, “Blocking NS3–NS4B interaction inhibits dengue virus in non-human primates” (Nature, 2023)
Read-outs that look alike come from different tables or passages of the source.

Columns and labels:
[1] = system: DENV-2 RL strain; assay: Antiviral assay, viral RNA RT-qPCR, Vero cells; assay type: cell-based
[2] = system: C6/36 cells; assay: Toxicity by high-content imaging; assay type: cell-based, Aedes albopictus; conditions: C3/36 cells; read-out: CC50, individual values
Method: (§1) A potential toxic effect on host cells was tested in parallel, while omitting virus infection, using the MTS/PMS method (Promega) for Vero cells, or by high-content imaging for C6/36 cells, as described previously. […] RT–qPCR data were analysed using the QuantStudio 12K Flex software (v.1.2.3) or SDS v.1.2 Applied Biosystems software. Inhibition values for antiviral molecules were plotted using KaleidaGraph plotting software (v.4.03, Synergy Software).

[3] = system: DENV-1 G1 Djibouti; assay: DENV genotype panel RT-qPCR, Vero E6; assay type: cell-based; conditions: Dengue virus, DENV1, Vero C1008; mean ± SD
Method: (§2) A total of 20 DENV strains, representing the available genotypes within the four DENV serotypes, were used in the in vitro genotype panel, from which 19 viruses were described previously in ref. [3] and one additional virus, DENV-1/45AZ5 (ref. [54]), was added.
as §1

[4] = system: DENV-2 American Trinidad; assay: DENV genotype panel RT-qPCR, Vero E6; assay type: cell-based; conditions: Dengue virus, DENV2, Vero C1008
Method: as §2, §1

[5] = system: DENV-3 G1 Malaysia; assay: DENV genotype panel RT-qPCR, Vero E6; assay type: cell-based; conditions: Dengue virus, DENV3, Vero C1008
Method: as §2, §1

[6] = system: DENV-3 G2 Thailand; assay: DENV genotype panel RT-qPCR, Vero E6; assay type: cell-based; conditions: Dengue virus, DENV3, Vero C1008
Method: as §2, §1

[7] = system: DENV-3 G3 Bolivia; assay: DENV genotype panel RT-qPCR, Vero E6; assay type: cell-based; conditions: Dengue virus, DENV3, Vero C1008
Method: as §2, §1

[8] = system: DENV-4 G2a Malaysia; assay: DENV genotype panel RT-qPCR, Vero E6; assay type: cell-based; conditions: Dengue virus, DENV4, Vero C1008
Method: as §2, §1

[9] = system: DENV-4 G2b Brazil; assay: DENV genotype panel RT-qPCR, Vero E6; assay type: cell-based; conditions: Dengue virus, DENV4, Vero C1008
Method: as §2, §1

[10] = system: DENV-4 G3 Thailand; assay: DENV genotype panel RT-qPCR, Vero E6; assay type: cell-based; conditions: Dengue virus, DENV4, Vero C1008
Method: as §2, §1

[11] = system: DENV-4 Sylvatic Malaysia; assay: DENV genotype panel RT-qPCR, Vero E6; assay type: cell-based; conditions: Dengue virus, DENV4, Vero C1008
Method: as §2, §1

[12] = system: DENV-2 Asian America Martinique; assay type: cell-based; conditions: T108I in NS4B
[13] = system: DENV-2 Asian I Thailand; assay type: cell-based; conditions: T108I in NS4B
[14] = system: ZIKV H/PF/2013; assay: microbe, parasite or virus in culture; assay type: cell-based; conditions: Zika virus, Vero C1008
[15] = system: HIV-1 IIIB; assay: microbe, parasite or virus in culture; assay type: cell-based; conditions: Human immunodeficiency virus 1, IIIB, MAGI-CCR5
[16] = system: DENV-1/45AZ5; assay: NHP DENV-1 study, IgM/IgG ELISA; conditions: for IgG ELISA Titer / IgM ELISA Titer: Negative = 100

## COc1cc(N[C@H](C(=O)c2c[nH]c3ccc(OC(F)(F)F)cc23)c2ccc(Cl)cc2OC)cc(S(C)(=O)=O)c1 [JNJ-1802]
[1]; Dengue virus, DENV2, Vero, Vero
  EC90: 0.275 ± 0.081 nM
[1]; Dengue virus, DENV2, Vero, Vero cells, DENV-2RL, EXP1-EXP3, read-out: EC50, single experiments
  EC50: 0.041 nM
[1]; Dengue virus, DENV2, Vero, Vero cells, DENV-2RL, EXP1-EXP3, read-out: EC90, single experiments
  EC90: 0.19 nM
[1]; Dengue virus, DENV2, Vero, Vero cells, DENV-2RL, median, read-out: EC50 MEDIAN
  EC50: 0.068 nM
[1]; Dengue virus, DENV2, Vero, Vero cells, DENV-2RL, median, read-out: EC90 MEDIAN
  EC90: 0.29 nM
[1]; Dengue virus, DENV2, Vero, Vero, read-out: EC50
  EC50: 0.062 ± 0.019 nM
[1]; Vero cells, DENV-2RL, EXP1-EXP3, read-out: EC50, single experiments
  EC50: 0.077 nM
[1]; Vero cells, DENV-2RL, EXP1-EXP3, read-out: EC90, single experiments
  EC90: 0.35 nM
[2]
  CC50: 15200 nM
[3]
  EC50: 0.207 ± 0.056 nM
  EC90: 0.83 ± 0.37 nM
[4]
  EC50: 0.063 ± 0.081 nM
  EC90: 0.162 ± 0.083 nM
[5]
  EC50: 1.28 ± 0.46 nM
  EC90: 3.6 ± 1.9 nM
[6]
  EC50: 1.68 ± 0.24 nM
  EC90: 5.8 ± 3 nM
[7]
  EC50: 0.9 ± 1.1 nM
  EC90: 6.71 ± 0.66 nM
[8]
  EC50: 0.82 ± 0.71 nM
  EC90: 2.1 ± 1.7 nM
[9]
  EC50: 0.521 ± 0.08 nM
  EC90: 1.54 ± 0.15 nM
[10]
  EC50: 45 nM
  EC90: 46 ± 12 nM
[11]
  EC50: 0.66 ± 0.42 nM
  EC90: 1.6 ± 1.1 nM
[12]
  EC50: 0.8 ± 0.7 nM
  EC90: 1.88 ± 1.37 nM
[13]
  EC50: 1.4 ± 0.34 nM
  EC90: 2.78 ± 0.037 nM
[14]
  EC50: 1100 nM
[15]
  EC50: 1600 nM
[16]; 6 mg per kg per day q.d.
  IgM and IgG responses: undetectable
[16]; animal R7, Day 0
  IgG ELISA Titer: 100
  IgM ELISA Titer: 100
[16]; animal R7, Day 5
  IgG ELISA Titer: 100
  IgM ELISA Titer: 100
[16]; animal R7, Day 7
  IgG ELISA Titer: 100
  IgM ELISA Titer: 100
[16]; animal R7, Day 9
  IgG ELISA Titer: 100
  IgM ELISA Titer: 100
[16]; animal R7, Day 11
  IgG ELISA Titer: 100
  IgM ELISA Titer: 100
[16]; animal R7, Day 14
  IgG ELISA Titer: 100
  IgM ELISA Titer: 100
[16]; animal R7, Day 29
  IgG ELISA Titer: 100
  IgM ELISA Titer: 100
[16]; animal R8, Day 0
  IgG ELISA Titer: 100
  IgM ELISA Titer: 100
[16]; animal R8, Day 5
  IgG ELISA Titer: 100
  IgM ELISA Titer: 100
[16]; animal R8, Day 7
  IgG ELISA Titer: 100
  IgM ELISA Titer: 100
[16]; animal R8, Day 9
  IgG ELISA Titer: 100
  IgM ELISA Titer: 100
[16]; animal R8, Day 11
  IgG ELISA Titer: 100
  IgM ELISA Titer: 100
[16]; animal R8, Day 14
  IgG ELISA Titer: 100
  IgM ELISA Titer: 100
[16]; animal R8, Day 29
  IgG ELISA Titer: 100
  IgM ELISA Titer: 100
[16]; animal R9, Day 0
  IgG ELISA Titer: 100
  IgM ELISA Titer: 100
[16]; animal R9, Day 5
  IgG ELISA Titer: 100
  IgM ELISA Titer: 100
[16]; animal R9, Day 7
  IgG ELISA Titer: 100
  IgM ELISA Titer: 100
[16]; animal R9, Day 9
  IgG ELISA Titer: 100
  IgM ELISA Titer: 100
[16]; animal R9, Day 11
  IgG ELISA Titer: 100
  IgM ELISA Titer: 100
[16]; animal R9, Day 14
  IgG ELISA Titer: 100
  IgM ELISA Titer: 100
[16]; animal R9, Day 29
  IgG ELISA Titer: 100
  IgM ELISA Titer: 100
[16]; animal R10, Day 0
  IgG ELISA Titer: 100
  IgM ELISA Titer: 100
[16]; animal R10, Day 5
  IgG ELISA Titer: 100
  IgM ELISA Titer: 100
[16]; animal R10, Day 7
  IgG ELISA Titer: 100
  IgM ELISA Titer: 100
[16]; animal R10, Day 9
  IgG ELISA Titer: 100
  IgM ELISA Titer: 100
[16]; animal R10, Day 11
  IgG ELISA Titer: 100
  IgM ELISA Titer: 100
[16]; animal R10, Day 14
  IgG ELISA Titer: 100
  IgM ELISA Titer: 100
[16]; animal R10, Day 29
  IgG ELISA Titer: 100
  IgM ELISA Titer: 100
[16]; animal R11, Day 0
  IgG ELISA Titer: 100
  IgM ELISA Titer: 100
[16]; animal R11, Day 5
  IgG ELISA Titer: 100
  IgM ELISA Titer: 100
[16]; animal R11, Day 7
  IgG ELISA Titer: 100
  IgM ELISA Titer: 100
[16]; animal R11, Day 9
  IgG ELISA Titer: 100
  IgM ELISA Titer: 100
[16]; animal R11, Day 11
  IgG ELISA Titer: 100
  IgM ELISA Titer: 100
[16]; animal R11, Day 14
  IgG ELISA Titer: 100
  IgM ELISA Titer: 100
[16]; animal R11, Day 29
  IgG ELISA Titer: 100
  IgM ELISA Titer: 100
[16]; animal R12, Day 0
  IgG ELISA Titer: 100
  IgM ELISA Titer: 100
[16]; animal R12, Day 5
  IgG ELISA Titer: 100
  IgM ELISA Titer: 100
[16]; animal R12, Day 7
  IgG ELISA Titer: 100
  IgM ELISA Titer: 100
[16]; animal R12, Day 9
  IgG ELISA Titer: 100
  IgM ELISA Titer: 100
[16]; animal R12, Day 11
  IgG ELISA Titer: 100
  IgM ELISA Titer: 100
[16]; animal R12, Day 14
  IgG ELISA Titer: 100
  IgM ELISA Titer: 100
[16]; animal R12, Day 29
  IgG ELISA Titer: 100
  IgM ELISA Titer: 100
